Reference: ChEMBL document CHEMBL1201861, “Genomics of Drug Sensitity in Cancer screening data, Wellcome Trust Sanger Institute”

Legend:
Test in all cases: cells
[1] = test system: COLO-741; type: functional, cell-based, Homo sapiens; conditions: Homo sapiens, COLO-741
Description: SANGER: Inhibition of human COLO-741 cell growth in a cell viability assay.

[2] = test system: COLO-800; type: functional, cell-based, Homo sapiens; conditions: Homo sapiens, COLO-800;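 also: growth inhibition of COLO-800 cells, read out with a cell viability assay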
Description: SANGER: Inhibition of human COLO-800 cell growth in a cell viability assay.

[3] = test system: CTV-1; type: functional, cell-based; conditions: Homo sapiens;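 also: growth inhibition of the cell line, read out with a cell viability assay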
Description: SANGER: Inhibition of human CTV-1 cell growth in a cell viability assay.

[4] = test system: ChaGo-K-1; type: functional, cell-based; conditions: Homo sapiens;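 also: growth inhibition of ChaGo-K-1 cells, read out with a cell viability assay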
Description: SANGER: Inhibition of human ChaGo-K-1 cell growth in a cell viability assay.

[5] = test system: DJM-1; type: functional, cell-based, Homo sapiens; conditions: Homo sapiens, DJM-1;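 also: growth inhibition of human DJM-1 cells, read out by a cell viability assay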
Description: SANGER: Inhibition of human DJM-1 cell growth in a cell viability assay.

[6] = test system: DSH1; type: functional, cell-based, Homo sapiens; conditions: Homo sapiens, DSH1;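 also: growth inhibition of human DSH1 cells, measured with a cell viability readout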
Description: SANGER: Inhibition of human DSH1 cell growth in a cell viability assay.

[7] = test system: Detroit 562; type: functional, cell-based, Homo sapiens; conditions: Homo sapiens, Detroit 562;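 also: growth inhibition of human Detroit 562 cells, read out by a cell viability assay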
Description: SANGER: Inhibition of human Detroit562 cell growth in a cell viability assay.

[8] = test system: EFO-21; type: functional, cell-based, Homo sapiens; conditions: Homo sapiens, EFO-21;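 also: growth inhibition of EFO-21 cells measured with a viability assay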
Description: SANGER: Inhibition of human EFO-21 cell growth in a cell viability assay.

[9] = test system: EW-1; type: functional, cell-based, Homo sapiens; conditions: Homo sapiens, EW-1;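 also: growth inhibition of the human EW-1 cell line, read out by a cell viability assay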
Description: SANGER: Inhibition of human EW-1 cell growth in a cell viability assay.

[10] = test system: EOL1; type: functional, cell-based; conditions: Homo sapiens;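 also: growth inhibition of EoL-1 cells, read out by a cell viability assay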
Description: SANGER: Inhibition of human EoL-1-cell cell growth in a cell viability assay.

[11] = test system: FTC-133; type: functional, cell-based, Homo sapiens; conditions: Homo sapiens, FTC-133
[12] = test system: G-401; type: functional, cell-based, Homo sapiens; conditions: Homo sapiens, G-401
Description: SANGER: Inhibition of human G-401 cell growth in a cell viability assay.

[13] = test system: GMS-10; type: functional, cell-based, Homo sapiens; conditions: Homo sapiens, GMS-10;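 also: growth inhibition of GMS-10 cells, read out as cell viability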
Description: SANGER: Inhibition of human GMS-10 cell growth in a cell viability assay.

[14] = test system: H4; type: functional, cell-based; conditions: Homo sapiens
Description: SANGER: Inhibition of human H4 cell growth in a cell viability assay.

[15] = test system: HAL-01; type: functional, cell-based; conditions: Homo sapiens;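 also: growth inhibition of human HAL-01 cells, read out with a cell viability assay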
Description: SANGER: Inhibition of human HAL-01 cell growth in a cell viability assay.

[16] = test system: HCC 2998; type: functional, cell-based, Homo sapiens; conditions: Homo sapiens, HCC 2998;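 also: growth inhibition of human HCC2998 cells, measured with a cell viability read-out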
Description: SANGER: Inhibition of human HCC2998 cell growth in a cell viability assay.

[17] = test system: HCC38; type: functional, cell-based, Homo sapiens; conditions: Homo sapiens, HCC38;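 also: cell viability assay on the human HCC38 cell line, with IC50 marking the concentration that inhibits cell growth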
Description: SANGER: Inhibition of human HCC38 cell growth in a cell viability assay.

[18] = test system: HDLM-2; type: functional, cell-based; conditions: Homo sapiens;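 also: cell viability assay measuring suppression of HDLM-2 proliferation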
Description: SANGER: Inhibition of human HDLM-2 cell growth in a cell viability assay.

[19] = test system: HOP-92; type: functional, cell-based, Homo sapiens; conditions: Homo sapiens, HOP-92;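 also: cell viability readout, with IC50 reflecting inhibition of HOP-92 cell growth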
Description: SANGER: Inhibition of human HOP-92 cell growth in a cell viability assay.

[20] = test system: HT-29; type: functional, cell-based, Homo sapiens; conditions: Homo sapiens, HT-29;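 also: growth inhibition of human HT-29 cells, read out by a cell viability assay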
Description: SANGER: Inhibition of human HT-29 cell growth in a cell viability assay.

[21] = test system: HTC-C3; type: functional, cell-based, Homo sapiens; conditions: Homo sapiens, HTC-C3;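 also: inhibition of cell growth, read out with a cell viability assay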
Description: SANGER: Inhibition of human HTC-C3 cell growth in a cell viability assay.

[22] = test system: HuP-T4; type: functional, cell-based, Homo sapiens; conditions: Homo sapiens, HuP-T4;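 also: cell viability assay measuring how much HuP-T4 cell growth is inhibited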
Description: SANGER: Inhibition of human HuP-T4 cell growth in a cell viability assay.

[23] = test system: IST-SL1; type: functional, cell-based, Homo sapiens; conditions: Homo sapiens, IST-SL1;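 also: growth inhibition of human IST-SL1 cells, read out with a cell viability assay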
Description: SANGER: Inhibition of human IST-SL1 cell growth in a cell viability assay.

[24] = test system: KURAMOCHI; type: functional, cell-based; conditions: Homo sapiens;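 also: growth inhibition of KURAMOCHI cells, read out with a cell viability assay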
Description: SANGER: Inhibition of human KURAMOCHI cell growth in a cell viability assay.

[25] = test system: KY821; type: functional, cell-based; conditions: Homo sapiens;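 also: growth inhibition of human KY821 cells, read out by a cell viability assay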
Description: SANGER: Inhibition of human KY821 cell growth in a cell viability assay.

[26] = test system: LCLC-103H cell line; type: functional, cell-based, Homo sapiens; conditions: Homo sapiens, LCLC-103H
Description: SANGER: Inhibition of human LCLC-103H cell growth in a cell viability assay.

[27] = test system: LN-405; type: functional, cell-based, Homo sapiens; conditions: Homo sapiens, LN-405
Description: SANGER: Inhibition of human LN-405 cell growth in a cell viability assay.

[28] = test system: MDA-MB-361; type: functional, cell-based, Homo sapiens; conditions: Homo sapiens, MDA-MB-361
[29] = test system: ME-180; type: functional, cell-based; conditions: Homo sapiens;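 also: cell viability assay measuring growth inhibition of ME-180 cells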
Description: SANGER: Inhibition of human ME-180 cell growth in a cell viability assay.

[30] = test system: NB69; type: functional, cell-based, Homo sapiens; conditions: Homo sapiens, NB69;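 also: growth inhibition of NB69 cells, determined by a cell viability assay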
Description: SANGER: Inhibition of human NB69 cell growth in a cell viability assay.

[31] = test system: NCI-H1395; type: functional, cell-based, Homo sapiens; conditions: Homo sapiens, NCI-H1395;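 also: cell viability assay read-out quantifying reduced proliferation of human NCI-H1395 cells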
Description: SANGER: Inhibition of human NCI-H1395 cell growth in a cell viability assay.

[32] = test system: NCI-H2122; type: functional, cell-based, Homo sapiens; conditions: Homo sapiens, NCI-H2122;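 also: growth inhibition of the cells, read out with a cell viability assay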
Description: SANGER: Inhibition of human NCI-H2122 cell growth in a cell viability assay.

[33] = test system: NCI-H510A; type: functional, cell-based; conditions: Homo sapiens;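 also: growth inhibition of NCI-H510A cells, read out with a cell viability assay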
Description: SANGER: Inhibition of human NCI-H510A cell growth in a cell viability assay.

[34] = test system: NCI-H650; type: functional, cell-based, Homo sapiens; conditions: Homo sapiens, NCI-H650;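 also: growth inhibition of NCI-H650 cells, read out by a viability assay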
Description: SANGER: Inhibition of human NCI-H650 cell growth in a cell viability assay.

[35] = test system: SNU1; type: functional, cell-based; conditions: Homo sapiens;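 also: growth inhibition of human NCI-SNU-1 cells, measured with a cell viability assay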
Description: SANGER: Inhibition of human NCI-SNU-1 cell growth in a cell viability assay.

[36] = test system: NEC8; type: functional, cell-based, Homo sapiens; conditions: Homo sapiens, NEC8;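 also: growth inhibition of human NEC8 cells, read out by a cell viability assay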
Description: SANGER: Inhibition of human NEC8 cell growth in a cell viability assay.

[37] = test system: NKM-1; type: functional, cell-based; conditions: Homo sapiens;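 also: growth inhibition of NKM-1 cells, read out with a cell viability assay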
Description: SANGER: Inhibition of human NKM-1 cell growth in a cell viability assay.

[38] = test system: OMC-1; type: functional, cell-based, Homo sapiens; conditions: Homo sapiens, OMC-1;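 also: growth inhibition of the OMC-1 cell line, measured by a cell viability assay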
Description: SANGER: Inhibition of human OMC-1 cell growth in a cell viability assay.

[39] = test system: OS-RC-2; type: functional, cell-based, Homo sapiens; conditions: Homo sapiens, OS-RC-2;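 also: growth inhibition of human OS-RC-2 cells, measured by a cell viability assay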
Description: SANGER: Inhibition of human OS-RC-2 cell growth in a cell viability assay.

[40] = test system: OVCAR-8; type: functional, cell-based, Homo sapiens; conditions: Homo sapiens, OVCAR-8;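 also: growth inhibition of human OVCAR-8 cells, read out by a cell viability assay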
Description: SANGER: Inhibition of human OVCAR-8 cell growth in a cell viability assay.

[41] = test system: QIMR-WIL; type: functional, cell-based; conditions: Homo sapiens;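 also: growth inhibition of QIMR-WIL cells, read out with a cell viability assay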
Description: SANGER: Inhibition of human QIMR-WIL cell growth in a cell viability assay.

[42] = test system: RMG-I; type: functional, cell-based, Homo sapiens; conditions: Homo sapiens, RMG-I;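 also: growth inhibition of human RMG-I cells, read out with a cell viability assay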
Description: SANGER: Inhibition of human RMG-I cell growth in a cell viability assay.

[43] = test system: SK-N-AS; type: functional, cell-based, Homo sapiens; conditions: Homo sapiens, SK-N-AS;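 also: growth inhibition of human SK-N-AS cells, measured with a cell viability assay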
Description: SANGER: Inhibition of human SK-N-AS cell growth in a cell viability assay.

[44] = test system: SK-N-FI; type: functional, cell-based, Homo sapiens; conditions: Homo sapiens, SK-N-FI;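 also: cell viability assay measuring growth inhibition of human SK-N-FI cells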
Description: SANGER: Inhibition of human SK-N-FI cell growth in a cell viability assay.

[45] = test system: BV-173; type: functional, cell-based; conditions: Homo sapiens
Description: SANGER: Inhibition of human BV-173 cell growth in a cell viability assay.

[46] = test system: TE-5; type: functional, cell-based, Homo sapiens; conditions: Homo sapiens, TE-5;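 also: inhibition of cell growth, read out by a cell viability assay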
Description: SANGER: Inhibition of human TE-5 cell growth in a cell viability assay.

[47] = test system: TGW; type: functional, cell-based; conditions: Homo sapiens;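 also: growth inhibition of human TGW cells, read out with a cell viability assay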
Description: SANGER: Inhibition of human TGW cell growth in a cell viability assay.

[48] = test system: no-11; type: functional, cell-based, Homo sapiens; conditions: Homo sapiens;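 also: growth inhibition of human NO-11 cells, read out with a cell viability assay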
Description: SANGER: Inhibition of human no-11 cell growth in a cell viability assay.

[49] = test system: CCRF-CEM; type: functional, cell-based; conditions: Homo sapiens;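 also: inhibition of CCRF-CEM cell growth, measured by a cell viability assay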
Description: SANGER: Inhibition of human CCRF-CEM cell growth in a cell viability assay.

[50] = test system: CGTH-W-1; type: functional, cell-based, Homo sapiens; conditions: Homo sapiens, CGTH-W-1;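 also: growth inhibition of human CGTH-W-1 cells measured by cell viability assay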
Description: SANGER: Inhibition of human CGTH-W-1 cell growth in a cell viability assay.

[51] = test system: COLO-679; type: functional, cell-based, Homo sapiens; conditions: Homo sapiens, COLO-679
Description: SANGER: Inhibition of human COLO-679 cell growth in a cell viability assay.

[52] = test system: COLO-680N; type: functional, cell-based, Homo sapiens; conditions: Homo sapiens, COLO-680N;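 also: cell viability assay used to measure inhibition of COLO-680N cell growth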
Description: SANGER: Inhibition of human COLO-680N cell growth in a cell viability assay.

[53] = test system: COLO-684; type: functional, cell-based; conditions: Homo sapiens
Description: SANGER: Inhibition of human COLO-684 cell growth in a cell viability assay.

Which results are given for `COC(=O)CNC(=O)C(=O)OC`?
IC50 [1]: > 4000 µM; IC50 [2]: > 4000 µM; IC50 [3]: 468 µM; IC50 [4]: 1560 µM; IC50 [5]: 215 µM; IC50 [6]: 96.2 µM; IC50 [7]: 507 µM; IC50 [8]: 260 µM; IC50 [9]: 977 µM; IC50 [10]: 122 µM; IC50 [11]: > 4000 µM; IC50 [12]: 1460 µM; IC50 [13]: 2190 µM; IC50 [14]: 177 µM; IC50 [15]: 119 µM; IC50 [16]: 3160 µM; IC50 [17]: 1740 µM; IC50 [18]: 1890 µM; IC50 [19]: 1960 µM; IC50 [20]: 846 µM; IC50 [21]: 175 µM; IC50 [22]: 128 µM; IC50 [23]: 492 µM; IC50 [24]: 1570 µM; IC50 [25]: > 4000 µM; IC50 [26]: 880 µM; IC50 [27]: 1610 µM; IC50 [28]: 1690 µM; IC50 [29]: 257 µM; IC50 [30]: 213 µM; IC50 [31]: > 4000 µM; IC50 [32]: 74.4 µM; IC50 [33]: 237 µM; IC50 [34]: 269 µM; IC50 [35]: > 4000 µM; IC50 [36]: 406 µM; IC50 [37]: 126 µM; IC50 [38]: 249 µM; IC50 [39]: 1750 µM; IC50 [40]: 593 µM; IC50 [41]: 424 µM; IC50 [42]: 820 µM; IC50 [43]: 971 µM; IC50 [44]: > 4000 µM; IC50 [45]: 234 µM; IC50 [46]: 1080 µM; IC50 [47]: > 4000 µM; IC50 [48]: 208 µM; IC50 [49]: 37.8 µM; IC50 [50]: 489 µM; IC50 [51]: 157 µM; IC50 [52]: 242 µM; IC50 [53]: 560 µM

For `CCC1=C[C@@H]2CN(C1)Cc1c([nH]c3ccccc13)[C@@](C(=O)OC)(c1cc3c(cc1OC)N(C)[C@H]1[C@@](O)(C(=O)OC)[C@H](OC(C)=O)[C@]4(CC)C=CCN5CC[C@]31[C@@H]54)C2` [VINORELBINE], which IC50 [1] is on record?
Its IC50 is 0.0357 µM.

What about the IC50 [2] of the same molecule?
Its IC50 is 0.017 µM.

What about the IC50 [3] of the same molecule?
Its IC50 is 0.00501 µM.

What about the IC50 [4] of the same molecule?
The IC50 was 0.00669 µM.

What about the IC50 [5] of the same molecule?
The IC50 was 0.0159 µM.

And the IC50 [6]?
Its IC50 is 0.00487 µM.

And the IC50 [7]?
Its IC50 is 0.00755 µM.

What about the IC50 [8] of the same molecule?
The IC50 was 0.0217 µM.

And the IC50 [9]?
Its IC50 is 0.00393 µM.

What about the IC50 [10] of the same molecule?
The IC50 was 0.00909 µM.

What about the IC50 [11] of the same molecule?
Its IC50 is > 0.064 µM.

And the IC50 [12]?
The IC50 was 0.00787 µM.

And the IC50 [13]?
Its IC50 is > 0.064 µM.

And the IC50 [14]?
The IC50 was 0.00785 µM.

What about the IC50 [15] of the same molecule?
The IC50 was > 0.064 µM.

What about the IC50 [16] of the same molecule?
The IC50 was 0.00505 µM.

What about the IC50 [17] of the same molecule?
The IC50 was 0.00487 µM.

What about the IC50 [18] of the same molecule?
Its IC50 is 0.0159 µM.

What about the IC50 [19] of the same molecule?
The IC50 was 0.0513 µM.

And the IC50 [20]?
The IC50 was 0.00324 µM.

What about the IC50 [21] of the same molecule?
Its IC50 is 0.0265 µM.

And the IC50 [22]?
Its IC50 is 0.0373 µM.

And the IC50 [23]?
Its IC50 is 0.0393 µM.

And the IC50 [24]?
Its IC50 is 0.00281 µM.

And the IC50 [25]?
The IC50 was > 0.064 µM.

What about the IC50 [26] of the same molecule?
Its IC50 is 0.00143 µM.

What about the IC50 [27] of the same molecule?
Its IC50 is > 0.064 µM.

And the IC50 [28]?
The IC50 was 0.00976 µM.

What about the IC50 [29] of the same molecule?
The IC50 was 0.021 µM.

And the IC50 [30]?
Its IC50 is 0.0455 µM.

And the IC50 [31]?
The IC50 was 0.0535 µM.

And the IC50 [32]?
Its IC50 is 0.00259 µM.

And the IC50 [33]?
The IC50 was 0.0155 µM.

What about the IC50 [34] of the same molecule?
The IC50 was 0.0161 µM.

And the IC50 [35]?
Its IC50 is 0.0327 µM.

And the IC50 [36]?
Its IC50 is 0.0139 µM.

And the IC50 [37]?
The IC50 was 0.00497 µM.

And the IC50 [38]?
Its IC50 is > 0.064 µM.

And the IC50 [39]?
The IC50 was 0.0343 µM.

And the IC50 [40]?
The IC50 was 0.0066 µM.

And the IC50 [41]?
The IC50 was 0.00304 µM.

What about the IC50 [42] of the same molecule?
Its IC50 is > 0.064 µM.

What about the IC50 [43] of the same molecule?
The IC50 was > 0.064 µM.

And the IC50 [44]?
Its IC50 is > 0.064 µM.

And the IC50 [45]?
Its IC50 is 0.0304 µM.

And the IC50 [46]?
Its IC50 is 0.0117 µM.

And the IC50 [47]?
The IC50 was > 0.064 µM.

And the IC50 [48]?
The IC50 was > 0.064 µM.

What about the IC50 [49] of the same molecule?
Its IC50 is 0.00456 µM.

And the IC50 [50]?
Its IC50 is 0.000232 µM.

And the IC50 [51]?
Its IC50 is 0.00183 µM.

And the IC50 [52]?
The IC50 was 0.0533 µM.

What about the IC50 [53] of the same molecule?
The IC50 was 0.0137 µM.
